According to article PMC8918994, “Characterization of the Trimethylamine N-Oxide Transporter From Pelagibacter Strain HTCC1062 Reveals Its Oligotrophic Niche Adaption” (Frontiers in Microbiology, 2022):

Key:
Assay in all cases: isothermal titration calorimetry
Format in all cases: binding
TmoX1062 [1] = target: T1, TmoX1062 (Candidatus Pelagibacter communis, UniProt Q4FL33)
T1 construct: gene tmoX
T1 sequence (Q4FL33 25-314): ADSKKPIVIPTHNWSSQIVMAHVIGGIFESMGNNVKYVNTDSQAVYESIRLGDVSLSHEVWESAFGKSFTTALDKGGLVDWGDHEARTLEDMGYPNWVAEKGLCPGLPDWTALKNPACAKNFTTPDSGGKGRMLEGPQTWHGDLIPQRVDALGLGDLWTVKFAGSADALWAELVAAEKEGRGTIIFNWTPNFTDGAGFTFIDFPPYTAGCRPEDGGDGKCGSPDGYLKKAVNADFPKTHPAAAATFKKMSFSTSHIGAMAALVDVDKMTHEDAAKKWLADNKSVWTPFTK
Description: isothermal titration calorimetry on TmoX1062

TmoX1062 [2] = target: T2, TmoX1062 (Candidatus Pelagibacter communis, UniProt Q4FL33, F210A); details: 10 mM Tris-HCl pH 8.0, 100 mM NaCl
T2 construct: gene tmoX
T2 sequence (Q4FL33 25-314 F210A): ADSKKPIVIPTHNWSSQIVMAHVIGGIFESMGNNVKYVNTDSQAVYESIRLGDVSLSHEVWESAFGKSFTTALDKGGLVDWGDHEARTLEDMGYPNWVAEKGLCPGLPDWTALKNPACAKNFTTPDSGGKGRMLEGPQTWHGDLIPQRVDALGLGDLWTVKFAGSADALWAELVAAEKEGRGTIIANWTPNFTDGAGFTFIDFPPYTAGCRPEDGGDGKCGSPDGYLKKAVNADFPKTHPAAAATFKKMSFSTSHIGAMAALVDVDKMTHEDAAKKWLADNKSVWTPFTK

TmoX1062 [3] = target: T3, TmoX1062 (Candidatus Pelagibacter communis, UniProt Q4FL33, E114A); details: 10 mM Tris-HCl pH 8.0, 100 mM NaCl
T3 construct: gene tmoX
T3 sequence (Q4FL33 25-314 E114A): as the sequence (Q4FL33 25-314 F210A) above, with E90A, A186F counted along it

TmoX1062 [4] = target: T4, TmoX1062 (Candidatus Pelagibacter communis, UniProt Q4FL33, F89A); details: 10 mM Tris-HCl pH 8.0, 100 mM NaCl
T4 construct: gene tmoX
T4 sequence (Q4FL33 25-314 F89A): as the sequence (Q4FL33 25-314 F210A) above, with F65A, A186F counted along it

TmoX1062 [5] = target: T5, TmoX1062 (Candidatus Pelagibacter communis, UniProt Q4FL33, W85A); details: 10 mM Tris-HCl pH 8.0, 100 mM NaCl
T5 construct: gene tmoX
T5 sequence (Q4FL33 25-314 W85A): as the sequence (Q4FL33 25-314 F210A) above, with W61A, A186F counted along it

TmoX1062 [6] = target: T6, TmoX1062 (Candidatus Pelagibacter communis, UniProt Q4FL33, W212A); details: 10 mM Tris-HCl pH 8.0, 100 mM NaCl
T6 construct: gene tmoX
T6 sequence (Q4FL33 25-314 W212A): as the sequence (Q4FL33 25-314 F210A) above, with A186F, W188A counted along it

TmoX1062 [7] = target: T7, TmoX1062 (Candidatus Pelagibacter communis, UniProt Q4FL33, W38A); details: 10 mM Tris-HCl pH 8.0, 100 mM NaCl
T7 construct: gene tmoX
T7 sequence (Q4FL33 25-314 W38A): as the sequence (Q4FL33 25-314 F210A) above, with W14A, A186F counted along it

Kd (TmoX1062 [1]) [nM]	Structure (SMILES)	binding affinity relative to WT (100%) (TmoX1062 [2])	binding affinity relative to WT (100%) (TmoX1062 [3])	binding affinity relative to WT (100%) (TmoX1062 [4])	binding affinity relative to WT (100%) (TmoX1062 [5])	binding affinity relative to WT (100%) (TmoX1062 [6])	binding affinity relative to WT (100%) (TmoX1062 [7])
2500 ± 330	C[N+](C)(C)CCO [Choline]	–	–	–	–	–	–
520 ± 120	C[N+](C)(C)[O-] [TMAO]	mutants W38A and F210A still maintained a relatively high TMAO binding affinity	Mutation of Glu114 to alanine abolished the binding affinity of TmoX1062 toward TMAO	Mutations of Trp85, Phe89 and Trp212 to alanine severely deceased the binding affinity of TmoX1062	Mutations of Trp85, Phe89 and Trp212 to alanine severely deceased the binding affinity of TmoX1062	Mutations of Trp85, Phe89 and Trp212 to alanine severely deceased the binding affinity of TmoX1062	mutants W38A and F210A still maintained a relatively high TMAO binding affinity
